System: Corynebacterium glutamicum strain DSM13994_Hdap_s
Assay: Screening on LB agar plates containing 4-hydroxydiaminopimelic acid (growth of colonies)
Type: cell-based
Settings: 10 g/l in LB agar, observed over 48 hours; UV mutant clone DSM13994_Hdap_s compared to parent DSM13994
Protocol: For screening on colonies that are sensitive to 4-hydroxy-diaminopimelic acid, the strain DSM13994 after UV mutagenesis (Sambrook et al., Molecular Cloning: A Laboratory Manual. 2nd Edition, Cold Spring Harbor, New York, 1989) is plated out on LB agar plates containing 4-hydroxydiaminopimelic acid. The agar plates are supplemented with 10 g/l of 4-hydroxydiaminopimelic acid. The growth of the colonies is observed over 48 hours. At this concentration mutants sensitive to 4-hydroxydiamino-pimelic acid may be differentiated from the unaltered parent strain by a delayed growth. […] The strain is identified as DSM13994_Hdap_s.

N[C@H](CC(O)C[C@H](N)C(=O)O)C(=O)O (stereo partly shown) [4-hydroxydiaminopimelic acid]
growth of the colonies: substantially delayed growth

Reference: patent US20040067561A1, “Process for the production of L-lysine using coryneform bacteria” (priority 2002, published 2004)
